# According to paper PMC5218480 (PLoS ONE, 2017):
# System: MV-4-11 cells
# Test: Gene expression microarray analysis (Affymetrix PrimeView) and GSEA
# Type: cell-based, human
# Parameters: RFU PODN (11730768_x_at) / Fold change /veh PODN (11730768_x_at) / RFU LINC00158 (11744669_a_at) / Fold change /veh LINC00158 (11744669_a_at) / RFU DUSP10 (11751237_a_at) / Fold change /veh DUSP10 (11751237_a_at) / RFU ID3 (11757404_x_at) / Fold change /veh ID3 (11757404_x_at) / RFU PLEKHG5 (11737974_s_at) / Fold change /veh PLEKHG5 (11737974_s_at) / RFU LRRC4B (11730491_at) / Fold change /veh LRRC4B (11730491_at) / RFU GIMAP4 (11747438_a_at) / Fold change /veh GIMAP4 (11747438_a_at) / RFU KRT8 (11758183_x_at) / Fold change /veh KRT8 (11758183_x_at) / RFU CNN1 (11734310_a_at) / Fold change /veh CNN1 (11734310_a_at) / RFU VPS37D (11726825_at) / Fold change /veh VPS37D (11726825_at) / RFU C10orf10 (11716522_x_at) / Fold change /veh C10orf10 (11716522_x_at) / RFU KIR2DL2 /// KIR2DL4 /// KIR2DL5A /// KIR2DL5B /// KIR2DS1 /// KIR2DS2 /// KIR2DS3 /// KIR2DS4 /// KIR3DL3 /// KIR3DL3 /// KIR3DS1 (11738374_at) / Fold change /veh KIR2DL2 /// KIR2DL4 /// KIR2DL5A /// KIR2DL5B /// KIR2DS1 /// KIR2DS2 /// KIR2DS3 /// KIR2DS4 /// KIR3DL3 /// KIR3DL3 /// KIR3DS1 (11738374_at) / RFU C1QL1 (11718748_at) / Fold change /veh C1QL1 (11718748_at) / RFU TMPRSS4 (11747572_a_at) / Fold change /veh TMPRSS4 (11747572_a_at) / RFU HAMP (11756126_x_at) / Fold change /veh HAMP (11756126_x_at) / RFU RNFT2 (11725882_a_at) / Fold change /veh RNFT2 (11725882_a_at) / RFU NR4A2 (11747474_a_at) / Fold change /veh NR4A2 (11747474_a_at) / RFU ABCC12 (11746883_a_at) / Fold change /veh ABCC12 (11746883_a_at) / RFU TMEM136 (11760407_x_at) / Fold change /veh TMEM136 (11760407_x_at) / RFU CLDN22 /// WWC2 (11732394_at) / Fold change /veh CLDN22 /// WWC2 (11732394_at) / RFU HLA-DPB1 (11760878_x_at) / Fold change /veh HLA-DPB1 (11760878_x_at) / RFU SPINT1 (11716480_a_at) / Fold change /veh SPINT1 (11716480_a_at) / RFU GAP43 (11754022_s_at) / Fold change /veh GAP43 (11754022_s_at) / RFU A4GNT (11735810_at) / Fold change /veh A4GNT (11735810_at) / RFU PRB3 (11715151_x_at) / Fold change /veh PRB3 (11715151_x_at) / RFU TUBB4B (11761932_at) / Fold change /veh TUBB4B (11761932_at) / RFU CAPN14 (11732068_a_at) / Fold change /veh CAPN14 (11732068_a_at) / RFU TMCC2 (11721928_a_at) / Fold change /veh TMCC2 (11721928_a_at) / RFU IRGQ (11745062_a_at) / Fold change /veh IRGQ (11745062_a_at) / RFU FAM174B (11720279_a_at) / Fold change /veh FAM174B (11720279_a_at) / RFU TMPRSS4 (11748680_a_at) / Fold change /veh TMPRSS4 (11748680_a_at) / RFU FAM212B (11763350_a_at) / Fold change /veh FAM212B (11763350_a_at) / RFU PLEKHG5 (11743358_a_at) / Fold change /veh PLEKHG5 (11743358_a_at) / RFU ZSCAN30 (11745921_a_at) / Fold change /veh ZSCAN30 (11745921_a_at) / RFU CMKLR1 (11741424_a_at) / Fold change /veh CMKLR1 (11741424_a_at) / RFU LOC101060620 /// MAPK8IP1 (11723275_at) / Fold change /veh LOC101060620 /// MAPK8IP1 (11723275_at) / RFU SPTSSB (11747773_x_at) / Fold change /veh SPTSSB (11747773_x_at) / RFU PRSS12 (11739890_at) / Fold change /veh PRSS12 (11739890_at) / RFU BIN1 (11741810_x_at) / Fold change /veh BIN1 (11741810_x_at) / RFU WNT11 (11732464_a_at) / Fold change /veh WNT11 (11732464_a_at) / RFU C10orf10 (11716521_a_at) / Fold change /veh C10orf10 (11716521_a_at) / RFU C5orf56 (11738089_at) / Fold change /veh C5orf56 (11738089_at) / RFU CYB561 (11721691_x_at) / Fold change /veh CYB561 (11721691_x_at) / RFU ANKRD19P (11752326_a_at) / Fold change /veh ANKRD19P (11752326_a_at) / RFU OR2T12 /// OR2T33 /// OR2T8 (11738714_s_at) / Fold change /veh OR2T12 /// OR2T33 /// OR2T8 (11738714_s_at) / RFU VCAN (11748164_a_at) / Fold change /veh VCAN (11748164_a_at) / RFU JSRP1 (11732532_at) / Fold change /veh JSRP1 (11732532_at) / RFU KRTAP10-11 (11738290_x_at) / Fold change /veh KRTAP10-11 (11738290_x_at) / RFU MYO3A (11730013_a_at) / Fold change /veh MYO3A (11730013_a_at) / RFU EBF3 (11725865_a_at) / Fold change /veh EBF3 (11725865_a_at) / RFU CAMK2N1 (11719241_x_at) / Fold change /veh CAMK2N1 (11719241_x_at) / RFU C5orf56 (11738088_a_at) / Fold change /veh C5orf56 (11738088_a_at) / RFU OLFML3 (11715873_a_at) / Fold change /veh OLFML3 (11715873_a_at) / RFU LOC100653217 /// NTM (11731650_a_at) / Fold change /veh LOC100653217 /// NTM (11731650_a_at) / RFU MAPK11 (11762145_a_at) / Fold change /veh MAPK11 (11762145_a_at) / RFU FIZ1 (11724087_x_at) / Fold change /veh FIZ1 (11724087_x_at) / RFU OASL (11726364_x_at) / Fold change /veh OASL (11726364_x_at) / RFU SOX15 (11748057_x_at) / Fold change /veh SOX15 (11748057_x_at) / RFU CD79A (11719716_a_at) / Fold change /veh CD79A (11719716_a_at) / RFU HIST1H1D (11736915_at) / Fold change /veh HIST1H1D (11736915_at) / RFU CASKIN2 (11723855_a_at) / Fold change /veh CASKIN2 (11723855_a_at) / RFU LOC730098 (11760151_x_at) / Fold change /veh LOC730098 (11760151_x_at) / RFU OR4N2 (11742367_at) / Fold change /veh OR4N2 (11742367_at) / RFU PRRT2 (11749266_a_at) / Fold change /veh PRRT2 (11749266_a_at) / RFU SNX32 (11753110_a_at) / Fold change /veh SNX32 (11753110_a_at) / RFU CDHR5 (11726645_a_at) / Fold change /veh CDHR5 (11726645_a_at) / RFU RCAN1 (11760418_a_at) / Fold change /veh RCAN1 (11760418_a_at) / RFU FAM167A (11723789_a_at) / Fold change /veh FAM167A (11723789_a_at) / RFU FAM26E (11764081_at) / Fold change /veh FAM26E (11764081_at) / RFU ISYNA1 (11749810_s_at) / Fold change /veh ISYNA1 (11749810_s_at) / RFU ACY1 (11761880_at) / Fold change /veh ACY1 (11761880_at) / RFU 11764098_at / Fold change /veh 11764098_at / RFU SAMD14 (11745864_x_at) / Fold change /veh SAMD14 (11745864_x_at) / RFU NPB (11741838_a_at) / Fold change /veh NPB (11741838_a_at) / RFU TMPRSS6 (11731388_a_at) / Fold change /veh TMPRSS6 (11731388_a_at) / RFU KRTAP10-2 (11738614_at) / Fold change /veh KRTAP10-2 (11738614_at) / RFU ARHGAP8 /// PRR5-ARHGAP8 (11727945_x_at) / Fold change /veh ARHGAP8 /// PRR5-ARHGAP8 (11727945_x_at) / RFU KRTAP5-7 /// NADSYN1 (11734609_at) / Fold change /veh KRTAP5-7 /// NADSYN1 (11734609_at) / RFU RASL12 (11751679_a_at) / Fold change /veh RASL12 (11751679_a_at) / RFU CDKN2B (11736163_a_at) / Fold change /veh CDKN2B (11736163_a_at) / RFU PRF1 (11729649_at) / Fold change /veh PRF1 (11729649_at) / RFU, ZNF638 /// ZNF638-IT1 / Fold change vs veh, ZNF638 /// ZNF638-IT1 / RFU, PANK3 / Fold change vs veh, PANK3 / RFU, SH3YL1 / Fold change vs veh, SH3YL1 / RFU, ZEB2 / Fold change vs veh, ZEB2 / RFU, NRIP1 / Fold change vs veh, NRIP1 / RFU, PTTG1IP / Fold change vs veh, PTTG1IP / RFU, CAPN2 / Fold change vs veh, CAPN2 / RFU, MED14 / Fold change vs veh, MED14 / RFU, SNORA58 / Fold change vs veh, SNORA58 / RFU, C1orf63 / Fold change vs veh, C1orf63 / RFU, LRRFIP1 / Fold change vs veh, LRRFIP1 / RFU, NDUFAF7 / Fold change vs veh, NDUFAF7 / RFU, SLC12A2 / Fold change vs veh, SLC12A2 / RFU, IBTK / Fold change vs veh, IBTK / RFU, ESF1 / Fold change vs veh, ESF1 / Fold change vs veh, TMEM50B / RFU, TAOK1 / Fold change vs veh, TAOK1 / RFU, ACBD3 / Fold change vs veh, ACBD3 / RFU, TMA16 / Fold change vs veh, TMA16 / RFU, RWDD3 / Fold change vs veh, RWDD3 / RFU, BCAT1 / Fold change vs veh, BCAT1 / RFU, EDEM3 / Fold change vs veh, EDEM3 / RFU, TMEM33 / Fold change vs veh, TMEM33 / RFU, WDR75 / Fold change vs veh, WDR75 / RFU, AHCTF1 / Fold change vs veh, AHCTF1 / RFU, TFRC / Fold change vs veh, TFRC / RFU, ZDHHC17 / Fold change vs veh, ZDHHC17 / RFU, NOM1 / Fold change vs veh, NOM1 / RFU, ARL8B / Fold change vs veh, ARL8B / RFU, ZBTB11 / Fold change vs veh, ZBTB11 / RFU, TAMM41 / Fold change vs veh, TAMM41 / RFU, KIAA1704 /// LOC100996395 / Fold change vs veh, KIAA1704 /// LOC100996395 / RFU, ING1 / Fold change vs veh, ING1 / RFU, TRMT61B / Fold change vs veh, TRMT61B / RFU, FUBP3 / Fold change vs veh, FUBP3 / RFU, TP53 / Fold change vs veh, TP53 / RFU, TNKS2 / Fold change vs veh, TNKS2 / RFU, ZFP14 / Fold change vs veh, ZFP14 / RFU, ACTR2 / Fold change vs veh, ACTR2 / RFU, PPP3R1 / Fold change vs veh, PPP3R1 / RFU, PIK3R1 / Fold change vs veh, PIK3R1 / RFU, HNRNPA1 / Fold change vs veh, HNRNPA1 / RFU, RNF170 / Fold change vs veh, RNF170 / RFU, ZNF28 / Fold change vs veh, ZNF28 / RFU, RNGTT / Fold change vs veh, RNGTT / RFU, OGT / Fold change vs veh, OGT / RFU, BRD1 / Fold change vs veh, BRD1 / RFU, MARS / Fold change vs veh, MARS / RFU, ZNF655 / Fold change vs veh, ZNF655 / RFU, FAHD1 / Fold change vs veh, FAHD1 / RFU, BDP1 / Fold change vs veh, BDP1 / RFU, LRRCC1 / Fold change vs veh, LRRCC1 / RFU, ARID1A / Fold change vs veh, ARID1A / RFU, ZNF146 / Fold change vs veh, ZNF146 / RFU, ZNF330 / Fold change vs veh, ZNF330 / RFU, GPN3 / Fold change vs veh, GPN3 / RFU, C9orf123 / Fold change vs veh, C9orf123 / RFU, N4BP2L2 / Fold change vs veh, N4BP2L2 / RFU, ARFIP1 / Fold change vs veh, ARFIP1 / RFU, FAM179B / Fold change vs veh, FAM179B / RFU, BCL10 / Fold change vs veh, BCL10 / RFU, UHRF1BP1L / Fold change vs veh, UHRF1BP1L / RFU, BET1 / Fold change vs veh, BET1 / RFU, CNOT2 / Fold change vs veh, CNOT2 / RFU, ZNF268 / Fold change vs veh, ZNF268 / Fold change vs veh, ZNF507 / RFU, DGCR2 / Fold change vs veh, DGCR2 / RFU, WDSUB1 / Fold change vs veh, WDSUB1 / Fold change vs veh, HSP90B1 /// MIR3652 / RFU, ADSS / Fold change vs veh, ADSS / RFU, GK / Fold change vs veh, GK / RFU, ZNF148 / Fold change vs veh, ZNF148 / RFU, TAF9 / Fold change vs veh, TAF9 / RFU, SLC1A5 / Fold change vs veh, SLC1A5 / RFU, SLMO2 / Fold change vs veh, SLMO2 / RFU, ABCC4 / Fold change vs veh, ABCC4 / RFU, LOC101060439 /// RAP1B / Fold change vs veh, LOC101060439 /// RAP1B / RFU, RFX7 / Fold change vs veh, RFX7 / RFU, GTPBP10 / Fold change vs veh, GTPBP10 / RFU, CNEP1R1 / Fold change vs veh, CNEP1R1 / RFU, BIVM-ERCC5 /// ERCC5 / Fold change vs veh, BIVM-ERCC5 /// ERCC5 / RFU, ILF3 / Fold change vs veh, ILF3 / RFU 11762660_at / Fold change /veh 11762660_at / RFU VCAN (11757783_s_at) / Fold change /veh VCAN (11757783_s_at) / RFU DDX43 (11728927_at) / Fold change /veh DDX43 (11728927_at) / RFU KRT8 (11758188_x_at) / Fold change /veh KRT8 (11758188_x_at) / RFU NKD1 (11759106_at) / Fold change /veh NKD1 (11759106_at) / RFU SRD5A1 (11742802_a_at) / Fold change /veh SRD5A1 (11742802_a_at) / RFU TPSAB1 /// TPSB2 (11721975_s_at) / Fold change /veh TPSAB1 /// TPSB2 (11721975_s_at) / RFU GSTM3 (11746129_a_at) / Fold change /veh GSTM3 (11746129_a_at) / RFU IL23R (11737362_x_at) / Fold change /veh IL23R (11737362_x_at) / RFU TMEM51 (11727254_a_at) / Fold change /veh TMEM51 (11727254_a_at) / RFU PIWIL2 (11732686_x_at) / Fold change /veh PIWIL2 (11732686_x_at) / RFU ORM1 (11744905_x_at) / Fold change /veh ORM1 (11744905_x_at) / RFU CCDC152 (11743942_at) / Fold change /veh CCDC152 (11743942_at) / RFU ECM1 (11717891_a_at) / Fold change /veh ECM1 (11717891_a_at) / RFU IL23R (11748794_a_at) / Fold change /veh IL23R (11748794_a_at) / RFU TNFAIP8L3 (11732012_x_at) / Fold change /veh TNFAIP8L3 (11732012_x_at) / RFU MBOAT4 (11741988_at) / Fold change /veh MBOAT4 (11741988_at) / RFU 11764193_at / Fold change /veh 11764193_at / RFU TMEM53 (11763286_at) / Fold change /veh TMEM53 (11763286_at) / RFU MAGEB2 (11727129_at) / Fold change /veh MAGEB2 (11727129_at) / RFU TMEM200A (11744735_a_at) / Fold change /veh TMEM200A (11744735_a_at) / RFU CCDC152 (11751479_a_at) / Fold change /veh CCDC152 (11751479_a_at) / RFU FAM211A (11726209_a_at) / Fold change /veh FAM211A (11726209_a_at) / RFU RGS16 (11746705_a_at) / Fold change /veh RGS16 (11746705_a_at) / RFU VCAN (11755009_s_at) / Fold change /veh VCAN (11755009_s_at) / RFU RHOB (11743442_s_at) / Fold change /veh RHOB (11743442_s_at) / RFU RGS16 (11720943_a_at) / Fold change /veh RGS16 (11720943_a_at) / RFU RGS16 (11720944_at) / Fold change /veh RGS16 (11720944_at) / RFU, VPS4B / Fold change vs veh, VPS4B / RFU, CREB1 / Fold change vs veh, CREB1 / RFU, DNAJC13 / Fold change vs veh, DNAJC13 / RFU, GNAQ / Fold change vs veh, GNAQ / RFU, CDK5R1 / Fold change vs veh, CDK5R1 / RFU, ZRANB3 / Fold change vs veh, ZRANB3 / RFU, CUL4A / Fold change vs veh, CUL4A / RFU, CCNY / Fold change vs veh, CCNY / RFU, UFL1 / Fold change vs veh, UFL1 / RFU, COG3 / Fold change vs veh, COG3 / RFU, DIAPH2 / Fold change vs veh, DIAPH2 / RFU, SKA2 / Fold change vs veh, SKA2 / RFU, AFF3 / Fold change vs veh, AFF3 / RFU, LMF1 / Fold change vs veh, LMF1 / RFU, IPO11 / Fold change vs veh, IPO11 / RFU, DFFB / Fold change vs veh, DFFB / RFU, FOXP1 / Fold change vs veh, FOXP1 / RFU, CARD8 / Fold change vs veh, CARD8 / RFU, STRN3 / Fold change vs veh, STRN3 / RFU, ADK / Fold change vs veh, ADK / RFU, RASSF2 / Fold change vs veh, RASSF2 / RFU, WIPF1 / Fold change vs veh, WIPF1 / RFU, LARP1B / Fold change vs veh, LARP1B / RFU, RASA1 / Fold change vs veh, RASA1 / RFU, RB1 / Fold change vs veh, RB1 / RFU, PPFIA1 / Fold change vs veh, PPFIA1 / RFU, MAT2A / Fold change vs veh, MAT2A / RFU, CCT5 / Fold change vs veh, CCT5 / RFU, WDR92 / Fold change vs veh, WDR92 / RFU, CUX1 / Fold change vs veh, CUX1 / RFU, TTC7A / Fold change vs veh, TTC7A / RFU, TMEM135 / Fold change vs veh, TMEM135 / RFU, DEPTOR / Fold change vs veh, DEPTOR / RFU, CPM / Fold change vs veh, CPM / RFU, DNAJB6 / Fold change vs veh, DNAJB6 / RFU, CACNA2D3 / Fold change vs veh, CACNA2D3 / RFU, DTX4 / Fold change vs veh, DTX4 / RFU, TFCP2 / Fold change vs veh, TFCP2 / RFU, GMCL1 /// GMCL1P1 / Fold change vs veh, GMCL1 /// GMCL1P1 / RFU, AEBP2 / Fold change vs veh, AEBP2 / RFU, SNHG1 /// SNORD22 /// SNORD25 /// SNORD26 /// SNORD27 /// SNORD28 /// SNORD29 /// SNORD31 / Fold change vs veh, SNHG1 /// SNORD22 /// SNORD25 /// SNORD26 /// SNORD27 /// SNORD28 /// SNORD29 /// SNORD31 / Fold change (Aza/veh), C12orf56 (ProbeSet 11735607_a_at) / Fold change (ACY-1035/veh), C12orf56 (ProbeSet 11735607_a_at) / Fold change (Aza/veh), FGFR1OP (ProbeSet 11751329_s_at) / Fold change (ACY-1035/veh), FGFR1OP (ProbeSet 11751329_s_at) / Fold change (Aza/veh), VPS36 (ProbeSet 11739960_a_at) / Fold change (ACY-1035/veh), VPS36 (ProbeSet 11739960_a_at) / RFU SYPL1 (11715823_x_at) / Fold change /veh SYPL1 (11715823_x_at) / RFU IGFBP7 (11715501_s_at) / Fold change /veh IGFBP7 (11715501_s_at) / RFU REEP3 (11722064_at) / Fold change /veh REEP3 (11722064_at) / RFU IGLL1 (11728026_x_at) / Fold change /veh IGLL1 (11728026_x_at): dose or concentration left out as unconfirmed
# Conditions: MV-4-11 cells, 48 hours
smiles,measurement,value
Nc1ccc(-c2cccs2)cc1NC(=O)c1ccc2c(c1)cc(C1CC1)n2CCN1CCOCC1 [ACY-1035],Fold change /veh PLEKHG5 (11743358_a_at),1.02
